In general, IC50 refers to the concentration that gives 50% inhibition. Read a high IC50 as weaker potency.

The text below walks through data of patent publication EP4737449A1 (Changchun Genescience Pharmaceutical Co., Ltd., priority 2023, dated 2025).

The target of one data set is T1, PXR (Homo sapiens, UniProt O75469).
T1 construct: expressed in transfected cells; host or cells: DPX2 cells
T1 sequence (O75469 1-434): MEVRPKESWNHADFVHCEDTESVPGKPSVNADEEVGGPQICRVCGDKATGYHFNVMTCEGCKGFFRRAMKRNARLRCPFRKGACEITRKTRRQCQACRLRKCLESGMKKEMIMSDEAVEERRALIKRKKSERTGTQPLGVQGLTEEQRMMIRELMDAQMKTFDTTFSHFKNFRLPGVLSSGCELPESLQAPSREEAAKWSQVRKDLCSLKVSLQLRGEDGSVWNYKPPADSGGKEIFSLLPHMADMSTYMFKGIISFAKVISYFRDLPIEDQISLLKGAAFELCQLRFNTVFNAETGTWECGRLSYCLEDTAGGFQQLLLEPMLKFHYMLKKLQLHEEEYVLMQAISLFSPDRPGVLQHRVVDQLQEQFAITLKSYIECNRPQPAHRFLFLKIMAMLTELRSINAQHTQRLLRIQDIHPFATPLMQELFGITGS
The data set can be described thus: PXR activity test in DPX2 cells (luciferase). As to conditions: for Activation fold: DPX2 cells, 24 h; for Percentage relative to positive control: positive control rifampicin. The class given is cell-based. The method, then: The cells were digested when they covered 80-90% of the bottom of the flask. • 3) The surface of the T-75 cultured cells was washed with 10 mL of PBS, PBS was removed by pipetting, 3-5 mL of trypsin was added, the cells were digested at 37°C for 5 min or until the cells were completely digested and in a suspended state, and excessive culture medium containing fetal bovine serum was added to terminate trypsin digestion. • 4) The cell suspension was transferred to a conical-bottom centrifuge tube and centrifuged at 150 g for 5 min at room temperature. The supernatant was carefully removed by pipetting and the cells were re-suspended in treatment medium to have a concentration of 3.2×10^5 cells/mL (incubation time 24 h, plate seeding density […]). In a 384-well cell culture plate, 25 μL of cell suspension was added to each well. The cell plate was placed in an incubator at 95% humidity, 37°C, and 5% CO2 for 24 h. […] The cell plates were placed in an incubator and further incubated for 24 h. • 3) Before starting experiments with the substrate, cell morphology and monolayer integrity were checked to ensure the monolayer is of acceptable quality for studies. […] GF-AFC substrate (10 μL) was added to Assay Buffer (10 ml) to form 2X reagent, which was then diluted into 1X reagent with 10 mL of PBS. ONE-Glo Luciferase substrate was added to ONE-Glo Luciferase Assay Buffer. • 3) The culture plate was taken out of the incubator, the culture medium was discarded, 1X CellTiter-Fluor^TM reagent was poured into the sample loading slot, 25 μL of reagent was added to each well of the culture plate using a pipetting workstation, and then the plate was placed in the incubator for incubation for 30 min. • 4) The cell culture plate was taken out from the incubator, cooled slightly to room temperature, and the fluorescence value was measured by automatic quantitative microplate reader. […] The activation fold of mRNA is calculated using the following formula: Fold activation = (RLUtest/RFUtest)/(RLUvehicle/RFUvehicle) [formula] 2) The percentage of cell viability of the compound is calculated as follows: Cell Viability % = (RFUtest/RFUvehicle) × 100 [formula] 3) The percentage relative to the positive control is calculated according to the following formula: Percent of positive control(%) = (Foldactivationtest/[…]:?}

Data set [1] concerns the target CYP 3A4 enzyme in human liver microsomes (Homo sapiens, UniProt P08684). The data set can be described thus: CYP3A4 inhibition experiment in human liver microsomes. The method, then: The inhibitory effects of the test compounds on CYP 3A4T (with testosterone as substrate) and 3A4M (with midazolam as substrate) in human liver microsomes were evaluated in vitro to assess the medication safety of the compounds.
This study used the human liver microsome system and the cytochrome P450 enzyme probe substrate recommended by FDA guidelines for in vitro drug interaction studies to investigate the inhibition of the CYP 3A4 enzyme in human liver microsomes by the test compounds.
Test group (TG): Human liver microsomes were incubated with different concentrations of test compounds, NADPH (final concentration 2.00 mM) and probe substrates of different sub-enzymes (Table 4) for 5 min.
Positive control group (PC): Human liver microsomes were incubated with inhibitors (Table 4), NADPH (final concentration 2.00 mM) and probe substrates of different sub-enzymes (Table 4) for 5 min. Table 4 Probe substrates of sub-enzymes, inhibitors and incubation systems
The system was pre-incubated at 37°C for 5 min, and then 15 µL of 8 mM NADPH solution preheated at 37°C for 5-10 min to start the reaction. After incubation of the 96-well plate at 37°C for 5 min, 180 µL of acetonitrile:methanol (ACN:MeOH=1:1) solution containing internal standard (IS) was added to terminate the reaction. […] 80 µL of the supernatant was taken, added to 120 µL of ultrapure water, shaken evenly, and then detected by LC-MS/MS.
199 µL of 0.2 mg/mL HLM and 1 µL of 1 mM positive control inhibitor (ketoconazole) working solutions were taken and mixed evenly. 30 µL of the drug-containing liver microsome solution was taken and added to a 96-well plate, then 10 µL of substrate working solution (20 µM midazolam) was added, in duplicate. The system was pre-incubated at 37°C for 5 min, and then 15 µL of 8 mM NADPH solution preheated at 37°C for 5-10 min to start the reaction. After incubation of the 96-well plate at 37°C for 5 min, 180 µL of ACN:MeOH(1:1) solution containing IS was added to terminate the reaction. […] 80 µL of the supernatant was taken, added to 120 µL of ultrapure water, shaken evenly, and then detected by LC-MS/MS.
4.2.5.1 The relative activity of CYP450 sub-enzymes at different concentrations was calculated by dividing the peak area ratio (analyte peak area/internal standard peak area) of metabolites in the presence of the test sample or positive control by the peak area ratio of metabolites in the solvent control sample in the absence of the test article or positive control, according to the following formula: [formula] [formula]
4.2.5.2 Half maximal inhibitory concentration (IC50) was obtained by fitting according to the following model formula using Prism software: Y = Bottom + (Top−Bottom)/(1+10^(∧)((LogIC50−X)×HillSlope)) [formula]
X is the test sample concentration converted to logarithm (Log µM), Y is the relative activity (% of NC), Bottom and Top represent the percentage of enzyme activity at the bottom platform and top platform of the curve, respectively, and HillSlope represents the slope; to optimize the fitting effect, the use of other (nonlinear) dose-response models for fitting is not considered as a deviation from the protocol.
A general note: Liver microsomes are a subcellular fraction often used to study metabolism.

Where [2] appears, read: Concentration 1 (µM per method).
Where [3] appears, read: Concentration 10 (µM per method).
The mark [4] stands for this setting: CYP 3A4M IC50, human liver microsomes, midazolam as substrate.
Setting [5] is: CYP 3A4T IC50, human liver microsomes, testosterone as substrate.

Sequence of CYP 3A4 enzyme in human liver microsomes (P08684 whole entry): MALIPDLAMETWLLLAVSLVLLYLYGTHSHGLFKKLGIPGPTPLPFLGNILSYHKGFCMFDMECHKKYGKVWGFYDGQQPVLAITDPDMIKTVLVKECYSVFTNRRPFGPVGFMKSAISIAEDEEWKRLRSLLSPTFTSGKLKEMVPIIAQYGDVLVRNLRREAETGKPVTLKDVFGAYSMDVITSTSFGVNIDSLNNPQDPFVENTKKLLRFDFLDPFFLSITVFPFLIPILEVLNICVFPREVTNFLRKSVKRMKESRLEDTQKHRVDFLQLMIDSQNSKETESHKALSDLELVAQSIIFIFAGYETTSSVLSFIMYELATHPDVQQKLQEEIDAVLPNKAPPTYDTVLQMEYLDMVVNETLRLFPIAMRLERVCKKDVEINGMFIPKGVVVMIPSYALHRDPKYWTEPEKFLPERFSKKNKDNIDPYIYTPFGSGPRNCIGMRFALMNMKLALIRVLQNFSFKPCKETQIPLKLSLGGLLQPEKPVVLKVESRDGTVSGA

Consider `CN1CC[C@@H](Nc2cccc3c(CC(F)(F)F)c(C#CCNC(=O)c4cnn(C(C)(C)C)c4)nn23)[C@@H](F)C1` [Compound 001, 1-tert-butyl-N-[3-(7-{[(3S,4R)-3-fluoro-1-methylpiperidin-4-yl]amino}-3-(2,2,2-trifluoroethyl)pyrazolo[1,5-a]pyridin-2-yl)prop-2-yn-1-yl]-1H-pyrazole-4-carboxamide], for which the Activation fold on PXR (setting [2]) is 1.41; on PXR (setting [3]), 3.05. Moreover, the “Percentage relative to positive control” value on PXR (setting [2]) stood at 8.07%; on PXR (setting [3]) it was 17.50%. Further, the IC50 is 26.3 µM in data set [1] (setting [4]) and 27.2 µM in data set [1] (setting [5]).
Turning to `CN1CC[C@@H](Nc2cccc3c(CC(F)(F)F)c(C#CCNC(=O)c4cnn(C(C)(C)C)c4N)nn23)[C@@H](F)C1` [Compound 047], the Activation fold on PXR (setting [2]) stood at 1.12; at PXR (setting [3]), 2.66. Also, the “Percentage relative to positive control” value on PXR (setting [2]) is on record as 5.67%; on PXR (setting [3]) it was 13.47%. The concentration for half-maximal inhibition (IC50) in data set [1] (setting [4]) is 20.7 µM; in data set [1] (setting [5]) it was 17.3 µM.
Take `CCn1ncc(C(=O)NCC#Cc2nn3c(N[C@@H]4CCN(C)C[C@@H]4F)cccc3c2CC(F)(F)F)c1N` [Compound 261, 5-amino-1-ethyl-N-[3-(7-{[(3S,4R)-3-fluoro-1-methylpiperidin-4-yl]amino}-3-(2,2,2-trifluoroethyl)pyrazolo[1,5-a]pyridin-2-yl)prop-2-yn-1-yl]-1H-pyrazole-4-carboxamide]: the Activation fold on PXR (setting [2]) amounted to 0.89; on PXR (setting [3]), 1.43. For the same molecule, the “Percentage relative to positive control” value at PXR (setting [2]) was determined as 4.48%; on PXR (setting [3]), 7.20%. The values for the IC50 in data set [1] (setting [4]) and in data set [1] (setting [5]) were 15.6 µM and 7.4 µM, respectively.
Regarding `CNC(=O)c1ccc(NCC#Cc2cc3c(N[C@@H]4CCN(C)C[C@@H]4F)cccc3n2CC(F)(F)F)c(OC)c1` [Control compound, reference compound], the Activation fold is listed as 1.40 on PXR (setting [2]) and 8.58 at PXR (setting [3]). Further, the “Percentage relative to positive control” value at PXR (setting [2]) turned out to be 8.61%; at PXR (setting [3]) it was 52.82%. Moreover, the half-maximal inhibitory concentration (IC50) was 9.4 µM in data set [1] (setting [4]) and 4.3 µM in data set [1] (setting [5]).
